Tests used:
[1] = tested on: Trypanosoma brucei brucei; test: MMV: Inhibition of Trypanosoma brucei brucei (Squib 427) (HAT in vitro).; format: functional, organism-based
Plasmodium falciparum [2] = test: MMV: Inhibition of Plasmodium falciparum 3D7 (EC50).; format: functional, organism-based
Trypanosoma cruzi = test: MMV: Inhibition of Trypanosoma cruzi (Tulahuen C4 LacZ) (Chagas in vitro).; format: functional, organism-based
[3] = tested on: Trypanosoma brucei rhodesiense; test: MMV: Inhibition of Trypanosoma brucei rhodesiense (STIB 900) (HAT in vitro).; format: functional, organism-based
Plasmodium falciparum [4] = test: MMV: Inhibition of Plasmodium falciparum 3D7 at 5uM compound concentration.; format: functional
Plasmodium falciparum [5] = test: MMV: Inhibition of Plasmodium falciparum K1 (EC50).; format: functional, organism-based
Leishmania infantum = test: MMV: Inhibition of Leishmania infantum (MHOM/MA/BE/67) in vitro.; format: functional, organism-based
[6] = MMV: Cytotoxicity against human fibroblasts (MRC-5) cells.; settings: MRC-5 cells (human fibroblasts)

SMILES | IC50 [1] [µM] | EC50 (Plasmodium falciparum [2]) [µM] | IC50 (Trypanosoma cruzi) [µM] | IC50 [3] [µM] | inhibition at 5 µM (Plasmodium falciparum [4]) [%] | EC50 (Plasmodium falciparum [5]) [µM] | IC50 (Leishmania infantum) [µM] | IC50 [6] [µM]
Cc1ccc(Nc2nc(-c3ccccn3)cs2)cc1 | 13.4 | 0.35 | 0.281 | 14.8 | 79 | 0.0822 | 5.38 | 
COc1cc(-c2nc(-c3ccc(Sc4ccccc4)cc3)c(-c3ccccc3)[nH]2)cc(OC)c1O | 3.37 | 0.35 | 11.1 | 3.61 | 97 | 0.976 | 16.2 | 8.45
OC(CNC1CCCCC1)Cn1c2ccccc2c2ccccc21 (configuration not stated) | 4.15 | 0.293 | > 32 | 4.03 | 93 | 1.17 | 16.6 | > 32
CCCCCCc1cc2cc(-c3csc(C=Cc4ccccc4)n3)c(=O)oc2cc1O | 13.6 | 0.387 | 19.1 | 8.87 | 92 | 0.143 | > 32 | > 32
CC(C)(C)c1ccc2c(c1)CN(Cc1ccc(Cl)cc1)CO2 | 10.1 | 0.362 | 17.7 | 5.04 | 98 | 0.107 | > 32 | > 32
CCOC(=O)c1c(C)n(-c2ccc(Cl)cc2)c2ccc(OC(=O)C=Cc3ccccc3)cc12 | 16.1 | 0.215 | 11.6 | 4.32 | 97 | 0.659 | > 32 | 18.5
CC(O)(c1ccc(Cl)cc1)C(CN1CCCCC1)c1ccccc1 (configuration not stated) | 16.1 |  | > 32 | 14.8 | 94 | 0.576 | > 32 | > 32
CCOC(=O)C1(Cc2ccccc2)CCN(Cc2cccc(OC)c2O)CC1 | 16.7 |  | 17.1 | 15.3 | 95 | 1 | > 32 | > 32
CC1CCCCN1CCCNC(=O)c1ccc2c(c1)sc1nc(-c3ccc(F)cc3)cn12 (configuration not stated) | 3.79 | 0.648 | 4.14 | 1.19 | 98 | 1.13 | 1.08 | 10.4
COc1ccc(C(=O)NC(c2ccc(Cl)cc2Cl)c2cc(Cl)c3cccnc3c2O)cc1 (configuration not stated) | 3.94 | 0.513 | 3.85 | 4.09 | 96 | 0.525 | 4.76 | 7.79
c1ccc2cc3c(Nc4ccc(N5CCOCC5)cc4)ccnc3cc2c1 | 0.332 | 0.251 | 1.29 | 0.346 | 97 | 0.516 | > 32 | > 32
Cc1cc(C)c2c(c1)OCN(Cc1ccccc1Cl)C2 | 16.6 | 0.268 | > 32 | 16.2 | 98 | 0.101 | 16.2 | > 32
CC(C)CCNCC(O)Cn1c2ccccc2c2ccccc21 (configuration not stated) | 0.931 | 0.473 | 6.73 | 1 | 97 | 0.21 | 4 | 16.2
CCc1ccc(CNCC(O)c2ccccc2)cc1 (configuration not stated) | 13.3 |  | > 32 | 4.03 | 97 | 0.65 | 25.4 | > 32
CCC(C)NCC(O)(c1ccc(Cl)cc1)c1ccc(Cl)cc1 (configuration not stated) | 4.1 |  | 15 | 4.03 | 98 | 0.398 | 16 | > 32
COc1ccc2nc(N)nc(C)c2c1 | 18.4 |  | > 32 | 16.3 | 63 | 0.3 | > 32 | > 32
Oc1ccc(Br)cc1CN1CCN(Cc2ccc(Cl)cc2)CC1 | > 32 |  | 8.28 | 14.9 | 97 | 0.899 | > 32 | > 32
CC(C)(C)CC(C)(C)NCC(O)COc1ccc2c(c1)CCC2 (configuration not stated) | 3.49 |  | 15.7 | 1.02 | 78 | 1.08 | 4.76 | 26.1
CCOc1c(Cl)cc(CNC(C)C(O)c2ccccc2)cc1OC (configuration not stated) | 9.51 |  | > 32 | 4.09 | 98 | 0.706 | 16.6 | > 32
Cc1cc(=O)oc2c1ccc1oc(C(=O)c3ccccc3)c(C)c12 | > 32 |  | > 32 | 20.8 | 94 | 0.683 | > 32 | 6.35
CCCCCn1c(=N)n(CC(O)COc2cccc(C)c2)c2ccccc21 (configuration not stated) | 0.923 |  | 4.21 | 0.986 | 96 | 1.25 | 3.41 | 15.5
COc1ccc(C(=O)NC(c2ccccc2Cl)c2cc(Cl)c3cccnc3c2O)cc1 (configuration not stated) | > 32 |  | > 32 | > 32 | 96 | 0.703 | > 32 | > 32
O=C(Nc1nc(-c2ccccn2)cs1)c1ccccc1Br | 1.04 | 1.36 | 0.26 | 0.376 | 97 | 1.58 | 1.59 | 
COc1ccc(CN2CCCC(C(=O)c3ccc(C(F)(F)F)cc3)C2)c(O)c1 (configuration not stated) | > 32 |  | > 32 | > 32 | 97 | 0.728 | > 32 | > 32
CCN(CC)CCn1c(=N)n(CC(O)c2ccc(Cl)c(Cl)c2)c2ccccc21 (configuration not stated) | 0.908 |  | 3.82 | 1.02 | 97 | 0.575 | 1 | 16.1
Cc1ccc(S(=O)(=O)c2c(COC(=O)c3cccc(C)c3)c(-c3ccccc3)nn2C)cc1 | 16.3 |  | 23.6 | 16.5 | 95 | 0.776 | 17.3 | > 32
C=CC12CCN(CC1)C(C(O)c1ccnc3ccc(OC)cc13)C2 (configuration not stated) | > 32 |  | > 32 | 16 |  | 0.0281 | > 32 | > 32
COc1nc(Nc2ccc(C(C)C)cc2)nc(OC)n1 | 10.9 | 1.14 | 24.5 | 10.7 | 88 |  | > 32 | > 32
COc1cc(C(=O)Nc2ccc(-c3nc4ccccc4[nH]3)cc2)cc(OC)c1OC | 3.37 | 1.22 | > 32 | 2.54 | 95 |  | > 32 | > 32
